This test concerns Escherichia coli. Briefly: MIC by microdilution, E. coli. The class given is cell-based. How it is done:
The antimicrobial activities of the OSe compounds were evaluated against C. albicans yeast, as well as E. coli and S. bacteria, employing the agar well diffusion assay. Furthermore, the MICs (in µM) were determined by the microdilution method according to the reported protocol. More details are in the Supporting Information.
1.1. The biological assays
1.1.1. The anticancer activity
The breast adenocarcinoma (MCF-7), Hepatocellular carcinoma (HEPG-2), and nor-mal fibroblast (WI-38) cells were obtained from ATCC via Holding company for biological products and vaccines (VACSERA), Cairo, Egypt. The reagents RPMI-1640 medium, MTT, DMSO, and fetal bovine serum was obtained from Sigma Aldrich. Dulbecco’s modified Eagle’s medium was used as the culture medium for the cells, and the cytotoxicity was evaluated using the reported MTT assay. […]
Cell lines were cultured in RPMI-1640 medium with 10% fetal bovine serum. […] The colorimetric assay is measured and recorded at an absorbance of 570 nm using a plate reader (EXL 800, USA). The percentage of the relative cell viability was calculated as (A570 of treated samples/A570 of the untreated sample) X 100. […]
The antimicrobial activities of the OSe compounds were evaluated against C. albicans yeast as well as E. coli gram-negative and S. aureus gram-positive bacteria employing the agar well diffusion assay. […]

Values after ≈ are worked out from the molar mass of the structure shown.

The source of these data is PMC9312238, “Novel Organoselenium Redox Modulators with Potential Anticancer, Antimicrobial, and Antioxidant Activities” (Antioxidants, 2022).

As for “2-((4-(2-(3-hydroxynaphthalen-1(4H)-ylidene)hydrazinyl)phenyl)selanyl)-N-phenylacetamide [Compound 9]”, the “MIC (μM) E. coli” value (microdilution) stood at 0.5 µM.
With `Nc1ccc([Se]CC(=O)N[C@@H](Cc2c[nH]c3ccccc23)C(=O)O)cc1` [Compound 6, (2-((4-aminophenyl)selanyl)acetyl)tryptophan], where the note is “Escherichia coli, read-out: MIC (μM) E. coli”, the MIC came to 1 µM (≈ 0.416 µg/mL).

As usually defined, the MIC is the lowest concentration found to suppress growth.
